Assay results published in patent US6743937B2, “Efficient method of synthesizing combretastatin A-4 prodrugs” (OxiGene, Inc., priority 2000, dated 2004).

Experiments:
[1] = Aqueous solubility at 25° C. as a function of pH; type: physicochemical; settings: for Aqueous solubility: 25° C., based on cis-CA4P free acid
[2] = Moisture sorption at 25° C.; type: physicochemical; settings: for Loss on drying at 1% RH / Wt. gain at 30-70% RH / Wt. gain at > 70% RH: moisture sorption at 25° C.
[3] = Solubility in organic solvents at 25° C.; type: physicochemical; settings: based on cis-CA4P free acid; for Solubility in Acetone: BQL = below quantitation limit of the HPLC method
[4] = cited from earlier work
[5] = Comparison of physical stability of Process A and Process B materials (DSC, TGA, powder-XRD, solubility); settings: based on the available data

For `COc1ccc(/C=C\c2cc(OC)c(OC)c(OC)c2)cc1OP(=O)([O-])[O-].[Na+].[Na+]` [Process A Product, combretastatin A-4 disodium phosphate], the Aqueous solubility ([1]; pH 0.6 (adjusted with HCl)) was 2.27 mg/mL, the Aqueous solubility ([1]; pH 0.8 (adjusted with HCl)) was 0.83 mg/mL and the Aqueous solubility ([1]; pH 1.2 (adjusted with HCl)) was 0.35 mg/mL. The Aqueous solubility ([1]; pH 5.2 (adjusted with HCl)) was 77.4 mg/mL, the Aqueous solubility ([1]; pH 5.6 (adjusted with HCl)) was 76.8 mg/mL and the Aqueous solubility ([1]; pH 7.1 (adjusted with HCl)) was 169 mg/mL. The Aqueous solubility ([1]; pH 7.2 (adjusted with HCl)) was 204 mg/mL, the Aqueous solubility ([1]; pH 7.8 (adjusted with HCl)) was 208 mg/mL and the Aqueous solubility ([1]; pH 9.4 (in water)) was 213 (in water) mg/mL. The “Hygroscopicity compared between products” value [2] was “greater degree of hygroscopicity than the Product B product”, the “Loss on drying at 1% RH” value [2] was 5.7% and the “Wt. gain at 30-70% RH” value [2] was 7-8.6%. For the same molecule, the “Wt. gain at > 70% RH” value [2] was 9-30%, the “Solubility in Ethanol” value [3] was “Ethanol = 0.18 mg/mL” and the “Solubility in Methanol” value [3] was “Methanol = 22.4 mg/mL”. The “Solubility in Acetone” value [3] was “Acetone = 0.45 mg/mL”.

For `COc1ccc(/C=C\c2cc(OC)c(OC)c(OC)c2)cc1O` [combretastatin A-4], the Solubility in water [4] is given as “extremely poor solubility in water”.

For `COc1ccc(/C=C\c2cc(OC)c(OC)c(OC)c2)cc1OP(=O)([O-])[O-].[Na+].[Na+]` [Process B Product, disodium salt of combretastatin A-4 phosphate], the Aqueous solubility ([1]; pH 0.8 (adjusted with HCl)) was 0.21 mg/mL, the Aqueous solubility ([1]; pH 0.97 (adjusted with HCl)) was 0.25 mg/mL and the Aqueous solubility ([1]; pH 2.20 (adjusted with HCl)) was 1.61 mg/mL. The Aqueous solubility ([1]; pH 3.26 (adjusted with HCl)) was 5.35 mg/mL, the Aqueous solubility ([1]; pH 6.96 (adjusted with HCl)) was 34.7 mg/mL and the Aqueous solubility ([1]; pH 7.28 (adjusted with HCl)) was 81.2 mg/mL. The Aqueous solubility ([1]; pH 7.35 (adjusted with HCl)) was 94.3 mg/mL, the Aqueous solubility ([1]; pH 8.40 (adjusted with HCl)) was 115 mg/mL and the Aqueous solubility ([1]; pH 9.4 (in water)) was 118 (in water) mg/mL. For the same molecule, the “Solubility compared between products” value ([1]; both aqueous and organic solvents at 25° C.) was “consistently lower solubility than the Process A product”, the “Loss on drying at 1% RH” value [2] was 6.6% and the “Wt. gain at 30-70% RH” value [2] was 3%. The “Wt. gain at > 70% RH” value [2] was “upto 30%”, the “Solubility in Ethanol” value [3] was “Ethanol = 0.096 mg/mL” and the “Solubility in Methanol” value [3] was “Methanol = 1.77 mg/mL”. For the same molecule, the “Solubility in Acetone” value [3] was “Acetone = BQL^$” and the “Physical stability compared between products” value [5] was “physically more stable material than Process A”.
